Experimental data reported in patent publication US12215129B2, “Antibacterial cyclopeptides targeting acinetobacter and other gram-negative pathogens” (priority 2020, dated 2025).
Starred links: 1 amine or outer side, 2 acyl side, 3 side chain; linkers in the order of their positions; H or OH if unused. Positions of bridges follow the written chain, without caps; N, C: chain ends. Non-standard residues stand in square brackets, D forms with d. Residues, ends and D or L forms follow the SMILES beside them. *: point of attachment. dAsp(3R-OH) = N[C@@H](C(=O)O)[C@@H](O)C(=O)O; X1 = NC[C@H](O)[C@@H](N[*:1])C(=O)[*:2]; X2 = CCC(C)(O)[C@H](N[*:1])C(=O)[*:2]; d(aIle) = CC[C@H](C)[C@@H](N)C(=O)O; Myristoyl = CCCCCCCCCCCCCC(=O)*; dOrn = NCCC[C@@H](N)C(=O)O; hSer = N[C@@H](CCO)C(=O)O

Tests used:
[1] = mouse, in vivo
[2] = in vivo; conditions: female, BALB/c, mouse
[3] = iv, 5 mg/kg, Mean plasma concentration

For `CCCCCCCCCCCCCC(=O)N[C@H](CCCN)C(=O)N[C@@H](CO)C(=O)N[C@H](C(=O)N[C@@H](C(=O)N[C@@H](C(=O)N[C@@H]1C(=O)NCC(=O)N[C@@H](C(C)(O)CC)C(=O)N[C@H]([C@@H](C)CC)C(=O)N[C@@H](CCO)C(=O)N[C@@H](C)C(=O)N[C@H]([C@@H](C)CC)C(=O)N[C@@H](CCC(=O)O)C(=O)O[C@@H]1C)[C@@H](O)CN)[C@@H](O)C(=O)O)C(C)C` (stereo partly drawn) [Compound 1, Turnercyclamycin A] (Myristoyl-[dOrn]SV[dAsp(3R-OH)][X1]TG[X2][d(aIle)][hSer]A[d(aIle)]E; ester 6-C), the “B.W. (g)” value [1] was “−”, the “Body Temperature” value [1] was “−” and the Convulsion [1] was “−”. For the same compound, the “Convulsion C.T.C-T” value [1] was “−”, the “Dec. Exploration” value [1] was “−” and the “Dec. Palpebral” value [1] was “−”. The “Dec. Palpebral Size” value [1] was “−”, the “Dec. Startle” value [1] was “−” and the “Dec. Startle Response” value [1] was “−”. For the same compound, the “Dec. Touch” value [1] was “−”, the “Dec. Touch Response” value [1] was “−” and the Diarrhea [1] was “−”. For the same compound, the “Grip Strength” value [1] was “−”, the Hyperactivity [1] was “−” and the “Inc. Exploration” value [1] was “−”. For the same compound, the “Inc. Palpebral Size” value [1] was “−”, the “Inc. Startle” value [1] was “−” and the Lacrimation [1] was “−”. For the same compound, the “Limb Tone” value [1] was “+”, the Piloerection [1] was “±” and the Pinna [1] was “−”. For the same compound, the Placing [1] was “−”, the Righting [1] was “−” and the “Salivation F.V.” value [1] was “−”. For the same compound, the “Skin Color” value [1] was “−”, the “Straub Tail” value [1] was “−” and the “adverse effects noted after the two administrations” value [1] was “decrease in adnominal tone, limb tone, and spontaneous activity, and tremor, piloerection, and increase in the respiration rate (fast)”. The “dose up to which well tolerated in mice” value [1] was “up to 50 mg/kg”, the “more pronounced adverse effects elicited” value [1] was “vocalization, ataxia, reactivity, and hunch back” and the clearance [2] was 0.29 mL/min/kg. It also gave an AUC(0-inf) ([2]; iv, 5 mg/kg) of 290 µg·h/mL, an AUC(0-t) ([2]; iv, 5 mg/kg) of 285 µg·h/mL and a C0 ([2]; iv, 5 mg/kg) of 33700 ng/mL. The MRT ([2]; iv, 5 mg/kg) was 5.83 h, the Vd ([2]; iv, 5 mg/kg) was 0.1 L/kg and the clearance ([2]; iv, 5 mg/kg) was 0.29 mL/min/kg. The half-life ([2]; iv, 5 mg/kg) was 4.35 h, the level at 0.05 h [2, 3] was 53300 ng/mL and the level at 0.167 h [2, 3] was 38600 ng/mL. The level at 0.5 h [2, 3] was 33700 ng/mL, the level at 1 h [2, 3] was 29300 ng/mL and the level at 2 h [2, 3] was 26200 ng/mL. It also gave a level at 4 h [2, 3] of 22500 ng/mL, a level at 8 h [2, 3] of 12000 ng/mL and a level at 24 h [2, 3] of 931 ng/mL. It also gave a level at 0.5 h ([2]; iv, 5 mg/kg, Sample concentration in plasma (individual mouse)) of 34400 ng/mL.
